pIC50: −log10 of the molar value.
What was measured:
Test in all cases: CellTiter-Glo cytotoxicity, cancer cell line panel
Format in all cases: cell-based
SNU-449 = details: Homo sapiens; SNU-449, Hepatocellular carcinoma
Description: (§1) The objective of this study is to investigate potential cell killing effect of Compounds 1-15 on 3 cancer cell lines. 50% inhibition concentration (IC50) was determined for these compounds in various cancer cell lines using CellTiter-Glo™ luminescent cell viability assay at different compound concentrations. Each cell line (e.g., NCI-H209; NCI-H69; and SW1271) was treated with Compounds 1-15 and culture medium contains 0.2% [v/v] DMSO vehicle control. All the cells were cultured in the media supplemented with 10-20% fetal bovine serum at 37° C., 5% CO2 and 95% humidity.
(§2) The objective of this study is to investigate the effect of Compound 1 on cytotoxicity against 61 different types of cancer cell lines. IC50 were values were obtained using CellTiter-Glo™ as described above. Each cell line shown in Table 3 was treated with Compound 1, a standard chemotherapy drug, cisplatin, as reference control and culture medium contains 0.2% [v/v] DMSO vehicle control. All cancer cell lines were cultured in media supplemented with 10-20% fetal bovine serum at 37° C., 5% CO2 and 95% humidity.

SK-HEP-1 = details: Homo sapiens, SK-HEP1; SK-HEP-1, Hepatocellular carcinoma
Description: as §1, §2

SF268 = details: Homo sapiens, SF-268; SF268, Astrocytoma
Description: as §1, §2

Li-7 = details: Li-7, Hepatocellular carcinoma
Description: as §1, §2

HuCCT1 = details: Homo sapiens, HuCCT-1; HuCCT1, Intrahepatic cholangiocarcinoma
Description: as §1, §2

U-87 MG = details: Homo sapiens, Glioblastoma
Description: as §1, §2

SNU-423 = details: Homo sapiens; SNU-423, Hepatocellular carcinoma
Description: as §1, §2

SK-OV-3 = details: Homo sapiens; SK-OV-3, Ovarian serous cystadenocarcinoma
Description: as §1, §2

SNU-475 = details: Homo sapiens; SNU-475, Hepatocellular carcinoma
Description: as §1, §2

769-P = details: Homo sapiens, Renal cell carcinoma
Description: as §1, §2

SK-NEP-1 = details: Homo sapiens; SK-NEP-1, Ewing sarcoma
Description: as §1, §2

RBE = details: Intrahepatic cholangiocarcinoma
Description: as §1, §2

PLC/PRF/5 = details: Homo sapiens; PLC/PRF/5, Hepatocellular carcinoma
Description: as §1, §2

HCCLM3 = details: Homo sapiens; HCCLM3, Hepatocellular carcinoma
Description: as §1, §2

JHH-7 = details: JHH7; JHH-7, Hepatocellular carcinoma
Description: as §1, §2

UO.31 = details: Homo sapiens; UO.31, Renal cell carcinoma
Description: as §1, §2

ACHN = details: Homo sapiens, Papillary renal cell carcinoma
Description: as §1, §2

Hep G2/C3A = details: HepG2/C3A, Hepatoblastoma carcinoma
Description: as §1, §2

MKN45 = details: Homo sapiens, MKN-45; MKN45, Gastric adenocarcinoma
Description: as §1, §2

A549 = details: Homo sapiens; A549, Lung adenocarcinoma
Description: as §1, §2

Hep G2 = details: Homo sapiens, HepG2; Hep G2, Hepatoblastoma carcinoma
Description: as §1, §2

JHH-5 = details: JHH-5, Hepatocellular carcinoma
Description: as §1, §2

SNU-387 = details: Homo sapiens; SNU-387, Hepatocellular carcinoma
Description: as §1, §2

JHH-4 = details: JHH-4, Hepatocellular carcinoma
Description: as §1, §2

SW 156 = details: SW 156, Renal cell carcinoma
Description: as §1, §2

JHH-6 = details: JHH-6, Hepatocellular carcinoma
Description: as §1, §2

786-O = details: Homo sapiens, 786-0, Renal cell carcinoma
Description: as §1, §2

NOZ = details: Gallbladder carcinoma
Description: as §1, §2

HLF = details: Hepatocellular carcinoma
Description: as §1, §2

SNU-368 = details: SNU-368, Hepatocellular carcinoma
Description: as §1, §2

SNU-761 = details: SNU-761, Hepatocellular carcinoma
Description: as §1, §2

Hep3B = details: Homo sapiens, Hepatocellular carcinoma
Description: as §1, §2

A498 = details: Homo sapiens; A498, Renal cell carcinoma
Description: as §1, §2

OZ = details: Intrahepatic cholangiocarcinoma
Description: as §1, §2

OS-RC-2 = details: Homo sapiens; OS-RC-2, Renal cell carcinoma
Description: as §1, §2

BT-474 = details: Homo sapiens; BT-474, Invasive ductal carcinoma
Description: as §1, §2

LNCaP clone FGC = details: Homo sapiens, Prostate carcinoma
Description: as §1, §2

SMILES: N=C(N)c1ccc(OCCCCCOc2ccc(C(=N)N)nc2)cc1 [Compound 1, 5-(5-(4-carbamimidoylphenoxy)pentyloxy)picolinimidamide]
- pIC50 (SNU-449): 5.80
- pIC50 (SK-HEP-1): 5.33
- pIC50 (SF268): 6.12
- pIC50 (Li-7): 6.12
- pIC50 (HuCCT1): 5.10
- pIC50 (U-87 MG): 5.25
- pIC50 (SNU-423): 5.76
- pIC50 (SK-OV-3): 5.93
- pIC50 (SNU-475): 5.90
- pIC50 (769-P): 5.79
- pIC50 (SK-NEP-1): 5.71
- pIC50 (RBE): 5.85
- pIC50 (PLC/PRF/5): 5.38
- pIC50 (HCCLM3): 4.92
- pIC50 (JHH-7): 6.30
- pIC50 (UO.31): 5.46
- pIC50 (ACHN): 5.33
- pIC50 (Hep G2/C3A): 6.64
- pIC50 (MKN45): 6.19
- pIC50 (A549): 6.43
- pIC50 (Hep G2): 6.47
- pIC50 (JHH-5): 6.19
- pIC50 (SNU-387): 5.40
- pIC50 (JHH-4): 5.90
- pIC50 (SW 156): 5.20
- pIC50 (JHH-6): 6.42
- pIC50 (786-O): 5.02
- pIC50 (NOZ): 5.60
- pIC50 (HLF): 5.69
- pIC50 (SNU-368): 6.44
- pIC50 (SNU-761): 5.48
- pIC50 (Hep3B): 6.55
- pIC50 (A498): 5.93
- pIC50 (OZ): 5.03
- pIC50 (OS-RC-2): 5.77
- pIC50 (BT-474): 4.80
- pIC50 (LNCaP clone FGC): 5.75

Reference: patent US20250388542A1, “ANALOGUES OF PENTAMIDINE AND USES THEREFOR” (Auransa Inc., priority 2018, published 2025)
